Where two headings read alike, the source gives them in different places.
Columns and labels:
[1] = test system: Ba/F3-BCR-FGFR1 cells; assay: Inhibition of proliferation activity of Ba/F3-BCR-FGFR1 cells (CellTiter-Glo); assay type: cell-based; details: read-out: IC50 (nM) Ba/F3-BCR-FGFR1
Procedure: The present experiment used CellTiter-Glo® Luminescent Cell Viability Assay (Promega: G7573) kit, which was a homogeneous cell viability detection method and determined the cell viability of cultured cells by quantifying ATP. • ① Ba/F3-BCR-FGFR1 or Ba/F3-FGFR3-BAIAP2L1 cells were cultured in 1640 complete medium (Gibco: 11879020) (10% FBS (Gibco: 10091-148)+1% Pen Strep (Gibco: 15140122)) under the condition of 37°C and 5% CO2. • (2) The cells in logarithmic growth phase were harvested and counted using a […]. The trypan blue exclusion method was used to detect cell viability to ensure the cell viability was above 90%. • ③ The cell density was adjusted using 1640 complete medium, and then, the cells were seeded into a 96-well cell culture plate at 90 µL/well with a total of 2000 cells. • ④ A 10-fold drug solution was prepared starting from a maximum drug concentration of 10 µM and 4-fold serially diluted into10 concentrations. Then, 10 µL of each of the serially diluted compounds was transferred to the corresponding experimental wells of a 96-well cell plate, with two replicates for each drug concentration. • ⑤ The 96-well plate with the cells that had been treated with the drugs was placed under the condition of 37°C and 5% CO2 to be further cultured for 72 hours, and then analyzed by CTG. • ⑥ The CTG reagent was melted and the cell plate was equilibrated to room temperature for 30 minutes. • ⑦ 50 µL of the CTG solution was added to each well. • ⑧ The cell plate was shaken on an orbital shaker for 5 minutes to lyse the cells. • ⑨ The cell plate was placed at room temperature for 20 minutes to stabilize the luminescence signal. The luminescence values were read to collect the data. • ⑩ The data were analyzed using XLFit excel plugin version 5.5.0.5, and fitted with non-linear S-curve regression to obtain the dose-response curves and thus calculate the IC50 values. Y = Bottom + (Top-Bottom)/((1+(IC50/X))^(∧) HillSlope [formula]
"Top" refers to the maximum response, "Bottom" refers to the minimum response, and "HillSlope" refers to the slope of the curve.
"Max" represents the average value of the cell control+DMSO, and "Min" represents the average value of the medium control+DMSO.

[2] = biological target: T1, FGFR2 (Homo sapiens, UniProt P21802); assay: FGFR2 kinase activity inhibition assay (LanthaScreen TR-FRET); assay type: biochemical
T1 construct: FGFR2's cytoplasmic domain [399-821 (terminal) amino acids]; purchased Carna 08-134
T1 sequence (P21802 399-821): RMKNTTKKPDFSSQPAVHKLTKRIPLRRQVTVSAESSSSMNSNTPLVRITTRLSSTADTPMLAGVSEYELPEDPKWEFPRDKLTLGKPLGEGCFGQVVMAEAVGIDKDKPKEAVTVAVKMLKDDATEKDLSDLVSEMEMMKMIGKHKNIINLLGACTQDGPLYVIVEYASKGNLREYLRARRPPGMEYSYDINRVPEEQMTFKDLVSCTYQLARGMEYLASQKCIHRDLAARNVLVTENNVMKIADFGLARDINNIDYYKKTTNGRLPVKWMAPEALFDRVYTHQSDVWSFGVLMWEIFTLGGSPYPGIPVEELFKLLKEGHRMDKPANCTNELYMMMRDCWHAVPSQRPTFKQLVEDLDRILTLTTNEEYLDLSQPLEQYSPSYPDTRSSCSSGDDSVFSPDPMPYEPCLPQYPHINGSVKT
In short: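 GST-fused FGFR2 cytoplasmic domain (aa 399-821) was run as in the FGFR1 protocol: preincubated 10 min at 23 °C with compound (3-fold series from 1 µM) in 50 mM HEPES pH 7.5, 10 mM MgCl2, 4 mM DTT, 1% DMSO. A 2× mix of 28 nM fluorescein-poly GT/28 µM ATP then reacted 30 min. Tb-PY20/EDTA quench preceded the TR-FRET 520/495 read.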

[3] = FGFR2 kinase, TR-FRET, read-out: IC50 (nM) FGFR2
[4] = Ba/F3-BCR-FGFR1 cells, 72 hours, CTG

Compound	IC50 ([1]; 72 h) [nM]	IC50 [2, 3] [nM]	IC50 [1, 4] [nM]	IC50 [2] [nM]
C[C@@H](Oc1ccc2[nH]nc(-c3ccc(S(C)(=N)=O)nc3)c2c1)c1c(Cl)cncc1Cl (stereo partly drawn) [Comparative Example 85, (5-(5-((R)-1-(3,5-dichloropyridin-4-yl)ethoxy)-1H-indazol-3-yl)pyridin-2-yl)(imino)(methyl)-sulfanone, reference compound]	615	–	–	–
C[C@@H](Oc1cc(F)c2[nH]nc(-c3cnn(CCN4CCOCC4)c3)c2c1)c1c(Cl)cncc1Cl [Example 12, (R)-4-(2-(4-(5-(1-(3,5-dichloropyridin-4-yl)ethoxy)-7-fluoro-1H-indazol-3-yl)-1H-pyrazol-1-yl)ethyl)morph oline]	–	1 to 10	592	–
C[C@@H](Oc1ccc2[nH]nc(-c3cnn(C)c3)c2n1)c1c(Cl)cncc1Cl [Example 29, (R)-5-(1-(3,5-dichloropyridin-4-yl)ethoxy)-3-(1-methyl-1H-pyrazol-4-yl)-1H-pyrazolo[4,3-b]pyridine]	–	< 1	38	–
C[C@@H](Oc1ccc2[nH]nc(-c3cnn(CCN4CCN(C)C(=O)C4)c3)c2n1)c1c(Cl)cncc1Cl [Example 54, (R)-4-(2-(4-(5-(1-(3,5-dichloropyridin-4-yl)ethoxy)-1H-pyrazolo[4,3-b]pyridin-3-yl)-1H-pyrazol-1-yl)ethyl)-1-methylpiperazin-2-one]	–	–	177	–
C[C@@H](Oc1ccc2[nH]nc(-c3cnn(CCN4CCS(=O)(=O)CC4)c3)c2n1)c1c(Cl)cncc1Cl [Example 55, (R)-4-(2-(4-(5-(1-(3,5-dichloropyridin-4-yl)ethoxy)-1H-pyrazolo[4,3-b]pyridin-3-yl)-1H-pyrazol-1-yl)ethyl)thiomorph oline 1,1-dioxide]	–	–	88.5	–
CC(Oc1ccc2[nH]nc(-c3cnn(C)c3)c2c1)c1cccc2ncccc12 (stereo not drawn) [Example 88, 5-(1-((3-(1-methyl-1H-pyrazol-4-yl)-1H-indazol-5-yl)oxy)ethyl)quin oline]	–	1 to 10	3420	–
CC(Oc1ccc2[nH]nc(-c3cnn(C)c3)c2c1)c1cccc2nccnc12 (stereo not drawn) [Example 92, 5-(1-((3-(1-methyl-1H-pyrazol-4-yl)-1H-indazol-5-yl)oxy)ethyl)quin oxaline]	–	1 to 10	98.6	–
Cc1ccc2ncccc2c1C(C)Oc1ccc2[nH]nc(-c3cnn(C)c3)c2c1 (stereo not drawn) [Example 95, 6-methyl-5-(1-((3-(1-methyl-1H-pyrazol-4-yl)-1H-indazol-5-yl)oxy)ethyl)quinolinee]	–	–	406	1 to 10
CC(Oc1ccc2[nH]nc(-c3cnn(C)c3)c2c1)c1cccn2ncnc12 (stereo not drawn) [Example 101, 8-(1-((3-(1-methyl-1H-pyrazol-4-yl)-1H-indazol-5-yl)oxy)ethyl)-[1,2,4]triazolo[1,5-a]pyridine]	–	–	246	–
CC(Oc1ccc2[nH]nc(-c3cnn(C)c3)c2c1)c1c(C(F)F)ccc2ncccc12 (stereo not drawn) [Example 127, 6-(difluoromethyl)-5-(1-((3-(1-methyl-1H-pyrazol-4-yl)-1H-indazol-5-yl)oxy)ethyl)quinoline]	–	1 to 10	941	–
CC(Oc1ccc2[nH]nc(-c3cnn(C)c3)c2c1)c1c(CF)ccc2ncccc12 (stereo not drawn) [Example 130, 6-(fluoromethyl)-5-(1-((3-(1-methyl-1H-pyrazol-4-yl)-1H-indazol-5-yl)oxy)ethyl)q uinoline]	–	1 to 10	1190	–
CC(Oc1ccc2[nH]nc(-c3cnn(C)c3)c2c1)c1cc(Cl)cc2nccnc12 (stereo not drawn) [Example 136, 7-chloro-5-(1-((3-(1-methyl-1H-pyrazol-4-yl)-1H-indazol-5-yl)oxy)ethyl)qu inoxaline]	–	1 to 10	377	–
Cc1cc2nccnc2c(C(C)Oc2ccc3[nH]nc(-c4cnn(C)c4)c3c2)n1 (stereo not drawn) [Example 183, 7-methyl-5-(1-((3-(1-methyl-1H-pyrazol-4-yl)-1H-indazol-5-yl)oxy)ethyl)pyridino [3,4-b]pyrazine]	–	1 to 10	55.3	–
COCC(=O)N1CC(n2cc(-c3n[nH]c4ccc(OC(C)c5cccc6nccnc56)cc34)cn2)C1 (stereo not drawn) [Example 188, 2-methoxy-1-(3-(4-(5-(1-(quinoxalin-5-yl)ethoxy)-1H-indazol-3-yl)-1H-pyrazol-1-yl)azetidin-1-yl)ethan-1-one]	–	1 to 10	277	–
CC(Oc1ccc2[nH]nc(-c3cnn(C4CN(C(=O)C(C)(C)O)C4)c3)c2c1)c1cccc2nccnc12 (stereo not drawn) [Example 190, 2-hydroxy-2-methyl-1-(3-(4-(5-(1-(quinoxalin-5-yl)ethoxy)-1H-indazol-3-yl)-1H-pyrazol-1-yl)azetidin-1-yl)propan-1-one]	–	1 to 10	425	–
CC(=O)N1CC(n2cc(-c3n[nH]c4ccc(OC(C)c5cccc6nccnc56)cc34)cn2)C1 (stereo not drawn) [Example 218, 1-(3-(4-(5-(1-(quinoxalin-5-yl)ethoxy)-1H-indazol-3-yl)-1H-pyrazol-1-yl)azetidin-1-yl)ethan-1-one]	–	1 to 10	441	–
CC(Oc1cc2c(-c3cnn(C)c3)n[nH]c2cc1F)c1cc(Cl)cc2nccnc12 (stereo not drawn) [Example 227, 7-chloro-5-(1-((6-fluoro-3-(1-methyl-1H-pyrazol-4-yl)-1H-indazol-5-yl)oxy)ethyl)qu inoxaline]	–	–	390	–
CC(Oc1ccc2[nH]nc(-c3cnn(C)c3)c2c1)c1nc(C(F)F)cc2nccnc12 (stereo not drawn) [Example 236, 7-(difluoromethyl)-5-(1-((3-(1-methyl-1H-pyrazol-4-yl)-1H-indazol-5-yl)oxy)ethyl)pyridino[3,4-b]pyrazine]	–	1 to 10	161	–
[2H]C([2H])([2H])c1cc2nccnc2c(C(C)Oc2ccc3[nH]nc(-c4cnn(C)c4)c3c2)n1 (stereo not drawn) [Example 241]	–	–	62.3	< 1

Reference: patent publication EP4644383A1 (Jiangsu Yahong Meditech Co., Ltd., priority 2022, dated 2024)
